Experimental data from PubChem BioAssay AID1259407 (Chemical Carcinogenesis Research Information System (CCRIS), 2018).
Calls of active or inactive are those of the source. The rule behind the calls is not given here.

Tested on: CCRIS mutagenicity, Ames/micronucleus/aberration tests
Assay: CCRIS mutagenicity studies
Source text: The CCRIS database contains chemical records with carcinogenicity, mutagenicity, tumor promotion, and tumor inhibition test results. It was developed by the National Cancer Institute (NCI). Data are derived from studies cited in primary journals, current awareness tools, NCI reports, and other sources. Test results have been reviewed by experts in carcinogenesis and mutagenesis.
CCRIS provides historical information from the years 1985 - 2011. It is no longer updated.
This is an archive assay for CCRIS mutagenicity studies.

[1] = Test System: AMES SALMONELLA TYPHIMURIUM, Strain/Indicator: TA98, Metabolic Activation: NONE, Method: STANDARD PLATE
[2] = Test System: AMES SALMONELLA TYPHIMURIUM, Strain/Indicator: TA98, Metabolic Activation: RAT, LIVER, S-9, AROCLOR 1254, Method: STANDARD PLATE
[3] = Test System: AMES SALMONELLA TYPHIMURIUM, Strain/Indicator: TA97, Metabolic Activation: NONE, Method: PREINCUBATION
[4] = Test System: AMES SALMONELLA TYPHIMURIUM, Strain/Indicator: TA98, Metabolic Activation: NONE, Method: PREINCUBATION
[5] = Test System: AMES SALMONELLA TYPHIMURIUM, Strain/Indicator: TA100, Metabolic Activation: NONE, Method: PREINCUBATION
[6] = Test System: AMES SALMONELLA TYPHIMURIUM, Strain/Indicator: TA1535, Metabolic Activation: NONE, Method: PREINCUBATION

SMILES: CCN(CCC#N)c1ccc(N=Nc2c(Cl)cc([N+](=O)[O-])cc2Cl)cc1
- mutagenic call [1]: active; positive
- mutagenic call [2]: active; positive
- mutagenic call (Test System: AMES SALMONELLA TYPHIMURIUM, Strain/Indicator: YG1041, Metabolic Activation: NONE, Method: STANDARD PLATE): active; positive
- mutagenic call (Test System: AMES SALMONELLA TYPHIMURIUM, Strain/Indicator: YG1041, Metabolic Activation: RAT, LIVER, S-9, AROCLOR 1254, Method: STANDARD PLATE): active; positive

SMILES: Cc1noc(NS(=O)(=O)c2ccc(N)cc2)c1C
- mutagenic call (End Point: IN VITRO CHROMOSOMAL ABERRATIONS, Test System: CHO CELLS, Metabolic Activation: NONE): inactive; negative
- mutagenic call (End Point: IN VITRO CHROMOSOMAL ABERRATIONS, Test System: CHO CELLS, Metabolic Activation: RAT, LIVER, S-9, AROCLOR 1254): inactive; negative
- mutagenic call (Test System: AMES SALMONELLA TYPHIMURIUM, Strain/Indicator: TA97, Metabolic Activation: HAMSTER, LIVER, S-9, AROCLOR 1254 (10 OR 30%), Method: PREINCUBATION): inactive; negative
- mutagenic call [3]: inactive; negative
- mutagenic call (Test System: AMES SALMONELLA TYPHIMURIUM, Strain/Indicator: TA97, Metabolic Activation: RAT, LIVER, S-9, AROCLOR 1254 (10 OR 30%), Method: PREINCUBATION): inactive; negative
- mutagenic call (Test System: AMES SALMONELLA TYPHIMURIUM, Strain/Indicator: TA98, Metabolic Activation: HAMSTER, LIVER, S-9, AROCLOR 1254 (10 OR 30%), Method: PREINCUBATION): inactive; negative
- mutagenic call [4]: inactive; negative
- mutagenic call (Test System: AMES SALMONELLA TYPHIMURIUM, Strain/Indicator: TA98, Metabolic Activation: RAT, LIVER, S-9, AROCLOR 1254 (10 OR 30%), Method: PREINCUBATION): inactive; negative
- mutagenic call (Test System: AMES SALMONELLA TYPHIMURIUM, Strain/Indicator: TA100, Metabolic Activation: HAMSTER, LIVER, S-9, AROCLOR 1254 (10 OR 30%), Method: PREINCUBATION): inactive; negative
- mutagenic call [5]: inactive; negative
- mutagenic call (Test System: AMES SALMONELLA TYPHIMURIUM, Strain/Indicator: TA100, Metabolic Activation: RAT, LIVER, S-9, AROCLOR 1254 (10 OR 30%), Method: PREINCUBATION): inactive; negative
- mutagenic call (Test System: AMES SALMONELLA TYPHIMURIUM, Strain/Indicator: TA1535, Metabolic Activation: HAMSTER, LIVER, S-9, AROCLOR 1254 (10 OR 30%), Method: PREINCUBATION): inactive; negative
- mutagenic call [6]: inactive; negative
- mutagenic call (Test System: AMES SALMONELLA TYPHIMURIUM, Strain/Indicator: TA1535, Metabolic Activation: RAT, LIVER, S-9, AROCLOR 1254 (10 OR 30%), Method: PREINCUBATION): inactive; negative
- mutagenic call (Test System: E. COLI, Strain/Indicator: WP2 UVRA, Metabolic Activation: HAMSTER, LIVER, S-9, AROCLOR 1254, Method: STANDARD PLATE): inactive; negative
- mutagenic call (Test System: E. COLI, Strain/Indicator: WP2 UVRA, Metabolic Activation: HAMSTER, LIVER, S-9, Method: STANDARD PLATE): inactive; negative
- mutagenic call (Test System: E. COLI, Strain/Indicator: WP2 UVRA, Metabolic Activation: MOUSE, LIVER, S-9, AROCLOR 1254, Method: STANDARD PLATE): inactive; negative
- mutagenic call (Test System: E. COLI, Strain/Indicator: WP2 UVRA, Metabolic Activation: MOUSE, LIVER, S-9, Method: STANDARD PLATE): inactive; negative
- mutagenic call (Test System: E. COLI, Strain/Indicator: WP2 UVRA, Metabolic Activation: NONE, Method: STANDARD PLATE): inactive; negative
- mutagenic call (Test System: E. COLI, Strain/Indicator: WP2 UVRA, Metabolic Activation: RAT, LIVER, S-9, AROCLOR 1254, Method: STANDARD PLATE): inactive; negative
- mutagenic call (Test System: E. COLI, Strain/Indicator: WP2 UVRA, Metabolic Activation: RAT, LIVER, S-9, Method: STANDARD PLATE): inactive; negative

SMILES: Cc1ccc(N)c(Cl)c1
- mutagenic call (Test System: UDS RODENT HEPATOCYTES, Strain/Indicator: THY INCORP (NON-S-PHASE), Metabolic Activation: NONE, Method: AUTORADIOGRAPHY): active; positive

SMILES: C=C1C[C@@H]2CC[C@]34C[C@@H]5O[C@@H]6[C@H](O[C@H]7CC[C@H](CC(=O)O[C@@H]8[C@H](C)[C@@H]9O[C@@H]%10C[C@]%11(C[C@@H]%12O[C@@]%13(C[C@H](C)[C@@H]%12O%11)C[C@H](C)[C@@H]%11O[C@@H]([C@@H](O)C[C@H](O)CO)C[C@H]%11O%13)O[C@@H]%10C[C@@H]9O[C@H]8C[C@@H]8O[C@H](CC[C@@H]1O2)C[C@H](C)C8=C)O[C@@H]7[C@H]6O3)[C@H]5O4
- mutagenic call (Test System: Mouse lymphoma, Strain/Indicator: L5178Y (tk+/tk-), Metabolic Activation: None, Method: Suspension/plate): inactive; negative
- mutagenic call (Test System: Mouse lymphoma, Strain/Indicator: L5178Y (tk+/tk-), Metabolic Activation: Rat, Liver, S-9, Aroclor 1254, Method: Suspension/plate): active; equivocal (previous evaluation positive)

SMILES: O=C1C=C(Nc2ccccc2)C(=O)c2ccccc21
- mutagenic call [3]: inactive; negative
- mutagenic call (Test System: AMES SALMONELLA TYPHIMURIUM, Strain/Indicator: TA97, Metabolic Activation: RAT, LIVER, S-9, PHENOBARBITAL AND 5,6-BENZOFLAVONE, Method: PREINCUBATION): active; positive
- mutagenic call [4]: inactive; negative
- mutagenic call (Test System: AMES SALMONELLA TYPHIMURIUM, Strain/Indicator: TA98, Metabolic Activation: RAT, LIVER, S-9, PHENOBARBITAL AND 5,6-BENZOFLAVONE, Method: PREINCUBATION): active; positive
- mutagenic call [5]: inactive; negative
- mutagenic call (Test System: AMES SALMONELLA TYPHIMURIUM, Strain/Indicator: TA100, Metabolic Activation: RAT, LIVER, S-9, PHENOBARBITAL AND 5,6-BENZOFLAVONE, Method: PREINCUBATION): inactive; negative
- mutagenic call (Test System: AMES SALMONELLA TYPHIMURIUM, Strain/Indicator: TA102, Metabolic Activation: NONE, Method: PREINCUBATION): inactive; negative
- mutagenic call (Test System: AMES SALMONELLA TYPHIMURIUM, Strain/Indicator: TA102, Metabolic Activation: RAT, LIVER, S-9, PHENOBARBITAL AND 5,6-BENZOFLAVONE, Method: PREINCUBATION): inactive; negative
- mutagenic call (Test System: AMES SALMONELLA TYPHIMURIUM, Strain/Indicator: TA104, Metabolic Activation: NONE, Method: PREINCUBATION): inactive; negative
- mutagenic call (Test System: AMES SALMONELLA TYPHIMURIUM, Strain/Indicator: TA104, Metabolic Activation: RAT, LIVER, S-9, PHENOBARBITAL AND 5,6-BENZOFLAVONE, Method: PREINCUBATION): active; positive
- mutagenic call [6]: inactive; negative
- mutagenic call (Test System: AMES SALMONELLA TYPHIMURIUM, Strain/Indicator: TA1535, Metabolic Activation: RAT, LIVER, S-9, PHENOBARBITAL AND 5,6-BENZOFLAVONE, Method: PREINCUBATION): inactive; negative
- mutagenic call (Test System: AMES SALMONELLA TYPHIMURIUM, Strain/Indicator: TA1537, Metabolic Activation: NONE, Method: PREINCUBATION): inactive; negative
- mutagenic call (Test System: AMES SALMONELLA TYPHIMURIUM, Strain/Indicator: TA1537, Metabolic Activation: RAT, LIVER, S-9, PHENOBARBITAL AND 5,6-BENZOFLAVONE, Method: PREINCUBATION): active; positive
- mutagenic call (Test System: AMES SALMONELLA TYPHIMURIUM, Strain/Indicator: TA1538, Metabolic Activation: NONE, Method: PREINCUBATION): inactive; negative
- mutagenic call (Test System: AMES SALMONELLA TYPHIMURIUM, Strain/Indicator: TA1538, Metabolic Activation: RAT, LIVER, S-9, PHENOBARBITAL AND 5,6-BENZOFLAVONE, Method: PREINCUBATION): active; positive
- mutagenic call (Test System: AMES SALMONELLA TYPHIMURIUM, Strain/Indicator: TA2637, Metabolic Activation: NONE, Method: PREINCUBATION): active; positive
- mutagenic call (Test System: AMES SALMONELLA TYPHIMURIUM, Strain/Indicator: TA2637, Metabolic Activation: RAT, LIVER, S-9, PHENOBARBITAL AND 5,6-BENZOFLAVONE, Method: PREINCUBATION): active; positive

SMILES: CC(=O)ON(C(C)=O)c1ccc(Sc2ccccc2)cc1
- mutagenic call (Test System: AMES SALMONELLA TYPHIMURIUM, Strain/Indicator: TA98(1,8-DNP6), Metabolic Activation: NONE, Method: STANDARD PLATE): active; positive
- mutagenic call [1]: active; positive
- mutagenic call [2]: active; positive

SMILES: COC(=O)C(/C=C(C)/C=C(C)/C=C/C=C(\C)C(=O)[C@]12O[C@H]1[C@@](O)(CCO)NC2=O)=C/CO
- mutagenic call [5]: active; positive

SMILES: O=NN(c1ccc(C(=O)O)cc1)C1OC[C@@H](O)[C@@H](O)[C@@H]1O (stereo partly specified)
- mutagenic call (Test System: AMES SALMONELLA TYPHIMURIUM, Strain/Indicator: TA100, Metabolic Activation: NONE, Method: LIQUID INCUBATION): active; positive
